Type in all cases: cell-based
One test addresses T1, TRPML2 (Homo sapiens, UniProt Q8IZK6).
T1 construct: expressed in transfected cells
T1 sequence (Q8IZK6 1-566): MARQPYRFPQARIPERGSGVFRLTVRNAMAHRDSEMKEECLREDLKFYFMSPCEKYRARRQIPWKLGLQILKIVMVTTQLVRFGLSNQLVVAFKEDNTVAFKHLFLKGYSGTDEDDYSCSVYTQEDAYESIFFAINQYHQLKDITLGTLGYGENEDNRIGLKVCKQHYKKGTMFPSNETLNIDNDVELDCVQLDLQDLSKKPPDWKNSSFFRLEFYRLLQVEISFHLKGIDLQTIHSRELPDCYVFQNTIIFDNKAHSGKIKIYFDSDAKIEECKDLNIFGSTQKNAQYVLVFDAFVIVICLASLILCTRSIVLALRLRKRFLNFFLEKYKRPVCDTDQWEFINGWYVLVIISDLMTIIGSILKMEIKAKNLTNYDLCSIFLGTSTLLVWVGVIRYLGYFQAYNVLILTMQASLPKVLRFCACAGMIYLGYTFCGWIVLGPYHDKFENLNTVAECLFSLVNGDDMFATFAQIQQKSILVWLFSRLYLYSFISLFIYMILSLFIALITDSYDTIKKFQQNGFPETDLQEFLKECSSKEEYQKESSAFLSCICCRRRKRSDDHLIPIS
As to the kind of experiment: Fluorescent TRPML2 assay (performed as for TRPML1, substituting the TRPML2 subtype). Summed up:
(§1)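 Compound series (final 6 nM-20 μM, half-log, triplicate) were added to Fluo4-AM-loaded HEK-293 Trex cells in 10 mM calcium Ringer's, expressing the human TRPML subtype after doxycycline 0.5 ug/mL induction. Percent activity versus positive/negative controls from 480/540 nm fluorescence; EC50 by non-linear regression.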

Another test deals with T2, TRPML3 (Homo sapiens, UniProt Q8TDD5).
T2 construct: expressed in transfected cells
T2 sequence (Q8TDD5 1-553): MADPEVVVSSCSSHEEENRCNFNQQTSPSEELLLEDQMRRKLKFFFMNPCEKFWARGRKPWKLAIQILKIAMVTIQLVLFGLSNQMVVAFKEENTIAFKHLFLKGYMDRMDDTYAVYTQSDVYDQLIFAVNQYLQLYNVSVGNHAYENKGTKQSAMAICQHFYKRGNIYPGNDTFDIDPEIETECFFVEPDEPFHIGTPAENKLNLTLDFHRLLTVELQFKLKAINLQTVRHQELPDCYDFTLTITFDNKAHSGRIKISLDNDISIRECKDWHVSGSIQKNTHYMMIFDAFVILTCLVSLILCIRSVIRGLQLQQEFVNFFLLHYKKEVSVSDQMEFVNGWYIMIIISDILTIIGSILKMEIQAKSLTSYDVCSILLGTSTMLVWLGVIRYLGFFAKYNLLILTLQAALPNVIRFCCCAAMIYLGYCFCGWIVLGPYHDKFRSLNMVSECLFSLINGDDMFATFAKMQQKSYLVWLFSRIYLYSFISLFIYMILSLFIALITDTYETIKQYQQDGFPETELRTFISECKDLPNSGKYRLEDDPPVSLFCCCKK
As to the kind of experiment: Fluorescent TRPML3 assay (performed as for TRPML1, substituting the TRPML3 subtype). Summed up: as §1

Another test concerns the target TRPML1 (Homo sapiens, UniProt Q9GZU1). Kind of test: Fluorescent TRPML1 assay (Fluo4-AM calcium fluorescence in doxycycline-induced HEK-293 Trex cells). Summed up: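 EC50 values come from non-linear regression of percent activity, normalized to on-plate positive and negative controls, with fluorescence read at 480 nm excitation and 540 nm emission. Fluo4-AM-loaded (1 µM) doxycycline-induced HEK-293 Trex cells expressing mutated human TRPML1 were exposed in 10 mM calcium Ringer's to 6 nM–20 µM compound, in triplicate.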

Like-named read-outs stand apart in the source and are kept apart here.

Sequence of TRPML1 (Q9GZU1 whole entry L15A/L16A/L577A/L578A, form open): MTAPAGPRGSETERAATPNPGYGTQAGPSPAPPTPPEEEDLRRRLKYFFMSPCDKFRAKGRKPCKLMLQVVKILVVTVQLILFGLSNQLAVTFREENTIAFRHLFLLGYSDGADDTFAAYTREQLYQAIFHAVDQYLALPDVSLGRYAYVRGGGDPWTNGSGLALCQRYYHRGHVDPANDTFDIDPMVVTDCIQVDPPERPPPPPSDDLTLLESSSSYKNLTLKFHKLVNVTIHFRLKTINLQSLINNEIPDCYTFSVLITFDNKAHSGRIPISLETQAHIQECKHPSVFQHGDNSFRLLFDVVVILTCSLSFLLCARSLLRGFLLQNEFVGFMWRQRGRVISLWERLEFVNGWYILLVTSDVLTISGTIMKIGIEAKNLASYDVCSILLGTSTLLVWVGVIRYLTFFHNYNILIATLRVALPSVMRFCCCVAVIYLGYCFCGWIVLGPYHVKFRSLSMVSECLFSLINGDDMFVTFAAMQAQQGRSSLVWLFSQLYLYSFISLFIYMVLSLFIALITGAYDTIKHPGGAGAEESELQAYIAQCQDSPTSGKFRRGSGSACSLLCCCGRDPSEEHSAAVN

Regarding `COc1cncc(-n2cc(-c3ccccc3F)c3c(N4CCN(C(=O)OC(C)(C)C)CC4)ncnc32)c1` [Compound 103, tert-butyl 4-(5-(2-fluorophenyl)-7-(5-methoxypyridin-3-yl)-7H-pyrrolo[2,3-d]pyrimidin-4-yl)piperazine-1-carboxylate], the EC50 on TRPML2 (fluorescent calcium assay) is 500 to 2000 nM; at TRPML3 (fluorescent calcium assay), 100 to 500 nM; on TRPML1 (fluorescent calcium assay), 100 to 500 nM.
Consider `C[C@@H]1CN(c2ncnc3c2c(C2CC2)cn3-c2cc(F)c(F)c(Cl)c2)CCN1C(=O)OC(C)(C)C` [Compound 207, tert-butyl (R)-4-(7-(3-chloro-4,5-difluorophenyl)-5-cyclopropyl-7H-pyrrolo[2,3-d]pyrimidin-4-yl)-2-methylpiperazine-1-carboxylate], for which the figures for the EC50 on TRPML2 (fluorescent calcium assay), on TRPML3 (fluorescent calcium assay) and on TRPML1 (fluorescent calcium assay) were 100 to 500 nM, < 100 nM and < 100 nM, respectively.
As for `C[C@@H]1CN(C(=O)OC(C)(C)C)CCN1c1ncnc2c1c(N1CCCC1)cn2-c1cccc(Cl)c1` [Compound 209, tert-Butyl (R)-4-(7-(3-chlorophenyl)-5-(pyrrolidin-1-yl)-7H-pyrrolo[2,3-d]pyrimidin-4-yl)-3-methylpiperazine-1-carboxylate], the EC50 on TRPML2 (fluorescent calcium assay) is 100 to 500 nM; on TRPML3 (fluorescent calcium assay) it was < 100 nM; on TRPML1 (fluorescent calcium assay), < 100 nM.
For `C[C@H]1CN(C(=O)OC(C)(C)C)CCN1c1ncnc2c1c(N(C)C1CC1)cn2-c1cccc(C#N)c1` [Compound 526], the EC50 on TRPML2, on TRPML3 and at TRPML1 was 100 to 500 nM each time.
As for `C[C@@H]1CN(c2ncnc3c2c(N2CCC(F)(F)C2)cn3-c2cccc(Cl)c2)CCN1C(=O)OC(C)(C)C` [Compound 300, tert-butyl (R)-4-(7-(3-chlorophenyl)-5-(3,3-difluoropyrrolidin-1-yl)-7H-pyrrolo[2,3-d]pyrimidin-4-yl)-2-methylpiperazine-1-carboxylate], the EC50 is 500 to 2000 nM at TRPML2 (fluorescent calcium assay), < 100 nM on TRPML3 (fluorescent calcium assay) and < 100 nM on TRPML1 (fluorescent calcium assay).
For the compound `C[C@@H]1CN(c2ncnc3c2c(C(F)(F)F)cn3-c2cc(C#N)ccn2)[C@@H](C)CN1C(=O)OC(C)(C)C` [Compound 483, tert-butyl (2R,5S)-4-(7-(4-cyanopyridin-2-yl)-5-(trifluoromethyl)-7H-pyrrolo[2,3-d]pyrimidin-4-yl)-2,5-dimethylpiperazine-1-carboxylate], the EC50 on TRPML2 (fluorescent calcium assay), at TRPML3 (fluorescent calcium assay) and at TRPML1 (fluorescent calcium assay) was < 100 nM in each case.
`C[C@@H]1CN(C(=O)OC(C)(C)C)CCN1c1ncnc2c1c(C1CC1)cn2-c1cccc(OC(F)F)c1` [Compound 197, tert-butyl (R)-4-(5-cyclopropyl-7-(3-(difluoromethoxy)phenyl)-7H-pyrrolo[2,3-d]pyrimidin-4-yl)-3-methylpiperazine-1-carboxylate]: the EC50 at TRPML2 (fluorescent calcium assay), on TRPML3 (fluorescent calcium assay) and at TRPML1 (fluorescent calcium assay) was 100 to 500 nM throughout.
Consider `CC(C)(C)OC(=O)N1CCN(c2ncnc3c2c(C2CC2)cn3-c2cc(C#N)ccn2)C2(CC2)C1` [Compound 429, tert-butyl 4-(7-(4-cyanopyridin-2-yl)-5-cyclopropyl-7H-pyrrolo[2,3-d]pyrimidin-4-yl)-4,7-diazaspiro[2.5]octane-7-carboxylate], for which the 50% effective concentration (EC50) on TRPML2 (fluorescent calcium assay), on TRPML3 (fluorescent calcium assay) and at TRPML1 (fluorescent calcium assay) was < 100 nM throughout.
On to `[2H]C([2H])([2H])C(OC(=O)N1C[C@H](C)N(c2nccc3c2c(C(F)(F)F)cn3-c2cc(C#N)ccn2)C[C@H]1C)(C([2H])([2H])[2H])C([2H])([2H])[2H]` [Compound 623, 2-(methyl-d3)propan-2-yl-1,1,1,3,3,3-d6 (2R,5S)-4-(1-(4-cyanopyridin-2-yl)-3-(trifluoromethyl)-1H-pyrrolo[3,2-c]pyridin-4-yl)-2,5-dimethylpiperazine-1-carboxylate], for which the EC50 at TRPML2 was 500 to 2000 nM; at TRPML3, < 100 nM; on TRPML1, < 100 nM.
As to `[2H]C([2H])([2H])C(OC(=O)N1C[C@@H](C)N(c2ncnc3c2c(C(F)(F)F)cn3-c2cc(C#N)ccn2)C[C@H]1C)(C([2H])([2H])[2H])C([2H])([2H])[2H]` [Compound 602, 2-(methyl-d3)propan-2-yl-1,1,1,3,3,3-d6 (2R,5R)-4-(7-(4-cyanopyridin-2-yl)-5-(trifluoromethyl)-7H-pyrrolo[2,3-d]pyrimidin-4-yl)-2,5-dimethylpiperazine-1-carboxylate], the EC50 is 500 to 2000 nM at TRPML2, 100 to 500 nM on TRPML3 and < 100 nM at TRPML1.
In the case of `C[C@@H]1CN(c2ncnc3c2c(-c2cnccn2)cn3-c2cccc(Cl)c2)[C@@H](C)CN1C(=O)OC(C)(C)C` [Compound 124, tert-butyl (2R,5S)-4-(7-(3-chlorophenyl)-5-(pyrazin-2-yl)-7H-pyrrolo[2,3-d]pyrimidin-4-yl)-2,5-dimethylpiperazine-1-carboxylate], the EC50 at TRPML2 (fluorescent calcium assay) is 500 to 2000 nM; on TRPML3 (fluorescent calcium assay), 100 to 500 nM; on TRPML1 (fluorescent calcium assay) it was < 100 nM.
For `CC(C)(C)OC(=O)N1CCN(c2ncnc3c2c(C2CC2)cn3-c2cc(F)cc(F)c2)CC1` [Compound 146, tert-butyl 4-(5-cyclopropyl-7-(3,5-difluorophenyl)-7H-pyrrolo[2,3-d]pyrimidin-4-yl)piperazine-1-carboxylate], in that order: 100 to 500 nM, < 100 nM and 100 to 500 nM.
On to `Cc1cn(-c2cccc(C(F)(F)F)c2)c2ncnc(N3C[C@@H](C)N(C(=O)OC(C)(C)C)C[C@@H]3C)c12` [Compound 667, tert-butyl (2R,5S)-2,5-dimethyl-4-(5-methyl-7-(3-(trifluoromethyl)phenyl)-7H-pyrrolo[2,3-d]pyrimidin-4-yl)piperazine-1-carboxylate], for which the values for the EC50 on TRPML2, at TRPML3 and on TRPML1 were 100 to 500 nM, < 100 nM and < 100 nM, respectively.
In the case of `C[C@@H]1CN(c2ncnc3c2c(C2CCC2)cn3-c2cc(F)cc(F)c2)[C@@H](C)CN1C(=O)OC(C)(C)C` [Compound 648, tert-butyl (2R,5S)-4-(5-cyclobutyl-7-(3,5-difluorophenyl)-7H-pyrrolo[2,3-d]pyrimidin-4-yl)-2,5-dimethylpiperazine-1-carboxylate], the 50% effective concentration (EC50) lay within 500 to 2000 nM on TRPML2, 100 to 500 nM on TRPML3 and 500 to 2000 nM on TRPML1.
`C[C@H]1COCCN1c1cn(-c2cccc(C#N)c2)c2ncnc(N3CCN(C(=O)OC(C)(C)C)C[C@@H]3C)c12` [Compound 379, tert-butyl (S)-4-(7-(3-cyanophenyl)-5-((S)-3-methylmorpholino)-7H-pyrrolo[2,3-d]pyrimidin-4-yl)-3-methylpiperazine-1-carboxylate]: the results for the EC50 on TRPML2 (fluorescent calcium assay), on TRPML3 (fluorescent calcium assay) and on TRPML1 (fluorescent calcium assay) were > 2000 nM, 500 to 2000 nM and 500 to 2000 nM, respectively.
With `COc1cccc(-n2cc(-c3cccnc3)c3c(N4CCN(C(=O)OC(C)(C)C)C[C@@H]4C)ncnc32)c1` [Compound 272, tert-butyl-(S)-4-(7-(3-methoxyphenyl)-5-(pyridin-3-yl)-7H-pyrrolo[2,3-d]pyrimidin-4-yl)-3-methylpiperazine-1-carboxylate], the values for the EC50 on TRPML2 (fluorescent calcium assay), at TRPML3 (fluorescent calcium assay) and on TRPML1 (fluorescent calcium assay) were 500 to 2000 nM, 100 to 500 nM and 100 to 500 nM, respectively.
Take `Cc1c(Cl)cccc1-n1cc(-c2cnccn2)c2c(N3CCN(C(=O)OC(C)(C)C)CC3C)ncnc21` (stereo not drawn) [Compound 162, tert-butyl 4-(7-(3-chloro-2-methylphenyl)-5-(pyrazin-2-yl)-7H-pyrrolo[2,3-d]pyrimidin-4-yl)-3-methylpiperazine-1-carboxylate]: the EC50 at TRPML2 (fluorescent calcium assay) lay within 500 to 2000 nM; on TRPML3 (fluorescent calcium assay), 100 to 500 nM; on TRPML1 (fluorescent calcium assay), 500 to 2000 nM.
As for `C[C@@H]1CN(c2ncnc3c2c(C2CC2)cn3-c2cc(F)cc(F)c2)CCN1C(=O)OC(C)(C)C` [Compound 108, tert-butyl (R)-4-(5-cyclopropyl-7-(3,5-difluorophenyl)-7H-pyrrolo[2,3-d]pyrimidin-4-yl)-2-methylpiperazine-1-carboxylate], the EC50 is 100 to 500 nM on TRPML2 (fluorescent calcium assay), < 100 nM at TRPML3 (fluorescent calcium assay) and < 100 nM at TRPML1 (fluorescent calcium assay).

One may read the EC50 as the concentration at which the effect is half-maximal.

For the origin of these results see patent US20250136606A1, “MODULATORS OF TRPML, THEIR COMPOSITIONS AND METHODS OF USE” (Caraway Therapeutics, Inc., priority 2021, published 2025).
